Measured values reported in patent US20080064665A1, “Combination approaches to cancer treatment” (priority 2006, published 2008).
Values joined by “and” are separate entries in the source; they are usually repeats but may differ in a detail not shown here. Equal values may be shown once.

How the values were obtained:
[1] = system: H460 human lung cancer xenografts; assay: Growth delay and survival of H460 xenografts, PR-104, docetaxel and schedules thereof; assay type: in vivo, CD-1 nude mice
Protocol: Specific pathogen-free homozygous nu/nu (CD-1) nu/nu [NIH-III] (Charles River Laboratories, Wilmington, Mass.) were provided by the Animal Resources Unit (University of Auckland) at 7 to 9 weeks of age. Mice were housed in groups of 4-7 in a temperature-controlled room (22±2° C.) with a 12-hour light/dark cycle and were fed ad libitum water and a standard rodent diet (Harlan Teklad diet 2018i). All animals were uniquely identifiable by ear tag number. All animal protocols were approved by the Animal Ethics Committee of the University of Auckland (AEC approval C337).
A single cell suspension was prepared by trypsinisation (1× Trypsin/EDTA) from spinner culture, counted, and suspended in ∝MEM to give required cell concentration, as listed below. Mice were inoculated (100 μL) at a single subcutaneous site (right flank) using a 1 ml syringe with a 26 gauge needle.
Seven days post-inoculation, tumors were measured three times per week until they reached the treatment size (mean diameter 5.8-8.2 mm; average 7.0 mm). Mean tumor diameter was averaged from the longest diameter (length) multiplied by the perpendicular measurement (width). Tumor diameters were estimated when mean diameter was below 5 mm, and measured with electronic callipers when ≧5 mm.
Tumor volume was calculated using the formula:
where L=length and w=width in mm of the carcinoma.
Excess compound was discarded.
Tumor bearing mice were assigned randomly to treatment groups when tumor diameter reached treatment size. Animals were rejected if xenografts show evidence of: (i) attachment to underlying muscle (due to risk of local invasion), (ii) signs of ulceration, or (iii) indolent tumor growth. Drug administration begins on the day of assignment. In general, 0.7-0.8 of the inoculated population is assigned to the experiment. Drug administration was undertaken as outlined above.
During and after treatment, tumor size and body weights were measured regularly. Animals were culled if (i) the average diameter of the tumor exceeds 15 mm (survival end-point), (ii) body weight loss exceeds 15% of pre-treatment value, (iii) there is evidence of prolonged or excessive morbidity, or (iv) tumor ulceration occurred. Each experiment was terminated at day 120 after treatment initiation.
Kaplan-Meier plots were constructed and median survival was calculated (TTE50). The statistical significance of any differences in overall survival between treatment groups and control was analysed by Log Rank P statistical test. The log-rank test was calculated using XLStat Life (Kovach Computing Services Ltd). The statistic significance in overall survival between each treatment group and control was determined by testing the null hypothesis that the survival curves are identical in the two populations.
The time for individual tumors to increase in volume by 4 fold relative to treatment day-1 (relative tumor volume×4−RTV^4) was recorded. The median RTV^4 is calculated for each group and the difference in RTV^4 between control and treatment groups is described as the Tumor Growth Delay (TGD) in days. RTV^4 values notmalise for any bias in tumor treatment volume on day-1. The RTV^4 of each treatment group is tested for statistical difference from control group by unpaired t-test and Mann Whitney U test (means and medians, respectively).
In circumstances where long-term controls (LTCs) occur, an RTV^4 value equal to the total duration of the experiment is assigned for the purposes of statistical analysis (usually 120 days). Where one or more LTC is present the median RTV^4 of each treatment group is tested for statistical difference from control group by Mann Whitney U test only. The statistical analysis was conducted at a p level of 0.05 (two-tailed). SigmaStat v3.10 was used for the statistical analysis of RTV^4 values. SigmaPlot v9 was used for all graph plots.
Weight loss nadirs (time independent maxima) were recorded for each treatment group.

[2] = system: SiHa human cervical cancer xenograft; assay: Growth delay and survival of SiHa xenograft, PR-104 and docetaxel; assay type: in vivo, Rag-1^null mice
Description: Analysis: End-points will be expressed as TTE50, Median RTV^4 and plotted in Kaplan-Meier Plots and analysed by Log Rank P statistical test. Weight loss nadir will be compared between schedules.

[3] = H460 xenograft, PR-104 652 mg/kg, docetaxel 73 mg/kg, q2w×2
[4] = Rag-1 mice, PR-104 652 mg/kg, docetaxel 73 mg/kg, q2w×2

## CC(=O)O[C@@]12CO[C@@H]1C[C@H](O)[C@@]1(C)C(=O)[C@H](O)C3=C(C)[C@@H](OC(=O)[C@H](O)[C@@H](NC(=O)OC(C)(C)C)c4ccccc4)C[C@@](O)([C@@H](OC(=O)c4ccccc4)[C@H]21)C3(C)C [Docetaxel, (2R,3S)-N-carboxy-3-phenylisoserine, N-tert-butyl ester, 13-ester with 5β-20-epoxy-1,2α,4,7β,10β,13α-hexahydroxytax-11-en-9-one 4-acetate 2-benzoate, trihydrate, reference compound]
[1]; H460 xenograft, CD-1 nude mice, mean body weight loss nadir, PR-104 652 mg/kg, docetaxel 73 mg/kg, i.p., q2w×2, trihydrate
  Weight Loss Nadir (%): −4.2 ± 1.0%
[1]; H460 xenograft, female CD-1 nude mice, total dose PR-104 652 mg/kg, docetaxel 73 mg/kg, i.p., q2w×2
  Unscheduled deaths: 0
[1]; H460 xenograft, 120 day experiment, PR-104 652 mg/kg, docetaxel 73 mg/kg, q2w×2
  LTC (long term control, failed to reach end-point within duration of experiment): 0
[1]; [3]
  Median RTV^4 (median time for tumor volume to increase 4-fold): 8 days
  TGD (tumor growth delay; relative gain in median RTV^4 versus control): 0%
[1]; H460 xenograft, end-point >15 mm mean diameter, PR-104 652 mg/kg, docetaxel 73 mg/kg, q2w×2
  TTE50 (median time for tumor end-point to occur from day of treatment): 14 days
[1]; H460 xenograft, versus control (11 days), PR-104 652 mg/kg, docetaxel 73 mg/kg, q2w×2
  Gain TTE50 (improvement in median survival): 3 days
[1]; tumor growth delay and survival end-points
  activity against H460 xenograft (in words): refractory
[2]; Rag-1 mice
  activity against SiHa xenograft (in words): displayed activity
[2]; Rag-1 mice, 120 day experiment
  LTC (long term control): 0
[2]; Rag-1 mice, PR-104 652 mg/kg, docetaxel 73 mg/kg, i.p., q2w×2, trihydrate
  Weight Loss Nadir (%): −7.0±0.8%
[2]; [4]
  Median RTV^4: 44.5 days
  TTE50 (median time for tumor end-point to occur): 54 days
[2]; Rag-1 mice, PR-104 652 mg/kg, docetaxel 73 mg/kg, q2w×2, trihydrate
  TGD (relative gain in median RTV^4 versus control): 271% and 270.8%
[2]; Rag-1 mice, day of unscheduled death, trihydrate
  Day of death: 44 and 66
[2]; Rag-1 mice, versus control
  improvement in tumor growth delay: 32.5 days
[2]; Rag-1 mice, versus control (17 days)
  Gain TTE50 (improvement in median survival): 37 days
[2]; female Rag-1 mice, total dose PR-104 652 mg/kg, docetaxel 73 mg/kg, i.p., q2w×2
  Unscheduled deaths: 2
